# From patent publication US12090140B2, “Non-sedating dexmedetomidine treatment regimens” (priority 2023, dated 2024)
# “And” between values parts separate entries of the source, which are not always exact repeats. Equal entries are not always repeated. Structures can show the parent of a compound that is named as a salt. Where two headings read alike, the source gives them in different places.
# Legend:
# [1] = pH 7.4; cited from earlier work
# plasma proteins = details: in vitro; cited from earlier work
# [2] = IV infusion
# Source text: (§1) Mean infusion rate is 0.36 mcg/kg/hr with the maximum rate ranging from about 0.2 mcg/kg/hr to about 0.6 mcg/kg/hr (see FIGS. 18 to 20).
# [3] = test system: agitation in subjects suffering from schizophrenia
# clinical = details: human, in vivo, iv
# Source text: as §1
# [4] = test system: subjects suffering from schizophrenia; details: for RASS values after infusion start, individual patients: IV infusion, treatment arm
# Source text: Another Key Objective of the study was to determine the reduction in the level of agitation, as determined by their PEC score, at the doses to achieve a RASS of −1.
# Patients 5, 7, 8 and 9 received placebo.
# [5] = test system: adult patients and healthy adult subjects; details: cited from earlier work
# [6] = cited from earlier work; for Mean clearance relative to subjects with normal hepatic function: IV infusion of 0.6 meg/kg over 10 minutes
# [7] = IV infusion from 0.2 mcg/kg/hr, rising 0.1 mcg/kg/hr every 30 minutes
structure (smiles),measurement,setting,value
"Cc1cccc([C@H](C)c2cnc[nH]2)c1C [Dexmedetomidine hydrochloride, 4-[(1S)-1-(2,3-dimethylphenyl)ethyl]-1H-imidazole hydrochloride]",Partition coefficient in octanol/water,[1],2.89
same,"Displacement of phenytoin, warfarin, ibuprofen, propranolol, theophylline and digoxin",plasma proteins,none of these compounds appeared to be significantly displaced
same,Plasma level concentration,"[2]; Patient 1 (treatment), 15 min",0.02245 ng/mL
same,Plasma level concentration,"[2]; Patient 1 (treatment), 30 min",0.01472 ng/mL
same,Plasma level concentration,"[2]; Patient 4 (treatment), 90 min",0.0443 ng/mL
same,Plasma level concentration,"[2]; Patient 11 (treatment), 15 min",0.04101 ng/mL
same,Plasma level concentration,"[2]; Patient 11 (treatment), 30 min",0.06291 ng/mL
same,Plasma level concentration,"[2]; Patient 11 (treatment), 45 min",0.12407 ng/mL
same,Plasma level concentration,"[2]; Patient 11 (treatment), 60 min",0.15047 ng/mL
same,Plasma level concentration,"[2]; Patient 12 (treatment), 30 min",0.04487 ng/mL
same,Plasma level concentration,"[2]; Patient 12 (treatment), 45 min",0.05051 ng/mL
same,Plasma level concentration,"[2]; Patient 12 (treatment), 60 min",0.1086 ng/mL
same,Plasma level concentration,"[2]; Patient 12 (treatment), 75 min",0.15854 ng/mL
same,Plasma level concentration,"[2]; Patient 12 (treatment), 90 min",0.23783 ng/mL
same,Plasma level concentration,"[2]; Patient 14 (treatment), 30 min",0.05266 ng/mL
same,Plasma level concentration,"[2]; Patient 14 (treatment), 45 min",0.04653 ng/mL
same,Plasma level concentration,"[2]; Patient 14 (treatment), 60 min",0.4063 ng/mL
same,Plasma level concentration,"[2]; Patient 16 (treatment), 15 min",0.00256 ng/mL
same,Plasma level concentration,"[2]; Patient 16 (treatment), 30 min",0.01559 ng/mL
same,Plasma level concentration,"[2]; Patient 16 (treatment), 45 min",0.04117 ng/mL
same,Plasma level concentration,"[2]; Patient 16 (treatment), 60 min",0.06788 ng/mL
same,Plasma level concentration,"[2]; Patient 16 (treatment), 75 min",0.07226 ng/mL
same,Plasma level concentration,"[2]; Patient 17 (treatment), 15 min",0.01587 ng/mL
same,Plasma level concentration,"[2]; Patient 17 (treatment), 45 min",0.03993 ng/mL
same,Plasma level concentration,"[2]; Patient 18 (treatment), 15 min",0.04836 ng/mL
same,Plasma level concentration,"[2]; Patient 18 (treatment), 30 min",0.05453 ng/mL
same,Patients with agitation reduced to a minimum (PEC score of 7 or below),[3]; [7],9 out of 10
same,Subjects with >=50% reduction in PEC score,[3]; IV route,7 of 10
same,Subjects with a 40% reduction in PEC score at a Cmax of =<72 μg/mL,[3]; IV route,5 of 10
same,Cmax,clinical,0.022 ng/mL
same,"RASS values after infusion start, individual patients","[4]; 15 minutes, hydrochloride",−2 and −1
same,"RASS values after infusion start, individual patients",[4]; 30 minutes,0
same,"RASS values after infusion start, individual patients",[4]; 75 minutes,−1
same,"RASS values after infusion start, individual patients",[4]; 90 minutes,0
same,Patients achieving a RASS score of at least −1,[4]; [7],9 out of 10
same,"RASS values after infusion start, individual patients",[4]; […],0
Cc1cccc([C@H](C)c2c[nH]cn2)c1C [intravenous dexmedetomidine],Effects of overdose,"[5]; IV 2 mcg/kg loading dose over 10 minutes, two patients",bradycardia and/or hypotension
same,Maximum blood concentration in tolerability study,"[5]; IV doses at and above 0.2 to 0.7 mcg/kg/hour, healthy adult subjects",approximately 13 times the upper boundary of the therapeutic range
same,Most notable effects at the highest doses,"[5]; IV tolerability study, two subjects",first degree atrioventricular block and second-degree heart block
same,"Adult patients with at least 1 event related to withdrawal, n (%)","[5]; IV up to 7 days, within the first 24 hours after discontinuing",12 (5%)
same,"Adult patients with at least 1 event related to withdrawal, n (%)","[5]; IV, 24 to 48 hours after discontinuing",7 (3%)
same,Frequency of tachycardia and hypertension requiring intervention,"[5]; IV, 48 hours following discontinuation",< 5%
same,Effect of sex on pharmacokinetics,[6]; intravenous,no observed difference
same,Mean clearance relative to subjects with normal hepatic function,[6]; mild hepatic impairment,74%
same,Mean clearance for free drug relative to subjects with normal hepatic function,[6]; mild hepatic impairment,59%
same,Mean clearance relative to subjects with normal hepatic function,[6]; moderate hepatic impairment,64%
same,Mean clearance for free drug relative to subjects with normal hepatic function,[6]; moderate hepatic impairment,51%
same,Mean clearance relative to subjects with normal hepatic function,[6]; severe hepatic impairment,53%
same,Mean clearance for free drug relative to subjects with normal hepatic function,[6]; severe hepatic impairment,32%
